For one series, the target named is PKM2 (Homo sapiens (Human), UniProt P14618). As to the kind of experiment: Recombinant PKM2 enzyme activity in the presence of FBP (LDH-coupled NADH consumption). It is filed as biochemical. The note with it: for IC50: recombinant pyruvate kinase, enzyme activity at various concentrations of inhibitor, read-out: IC50 in vitro (PKM2); for PKM2 inhibition of enzyme activity relative to the absence of compound: screening concentration estimated at 50 μM. On the procedure:
(§1) Recombinant PKM1 and PKM2 were expressed in E. coli and purified using an Ni-NTA column according to standard protocols. PKM2 ([…]) was mixed with the following components: 0.6 mM ADP, 0.5 mM phosphoenolpyruvate, 200 μM NADH, 1-4 units of lactate dehydrogenase, 50 μM FBP, 1 mM DTT, 0.02% Brij 35, 5% glycerol, and the test molecule with a final DMSO concentration of 5%. A control reaction lacked the test molecule. The test molecules used in this example were selected from a library containing over 100,000 compounds.
Primary screening was performed using PKM2 in the presence of FBP. […] Activity was measured by monitoring the concentration of NADH. Pyruvate, produced by the enzymatic activity of pyruvate kinase, is converted into lactate by lactate dehydrogenase, which requires the consumption of NADH (NADH→NAD^+). Thus, the activity of PKM2 was indirectly measured by monitoring the consumption of NADH through fluorescence assays. Additionally, the activity of the PKM2 enzyme was directly monitored by measuring the production of ATP, as ATP is produced when phosphoenolpyruvate is converted to pyruvate by PKM2.
(§2) For in vitro studies, recombinant pyruvate kinase was incubated with the compound indicated (Table 2) and the activity of the enzyme assessed, as described in Example 4. To determine the IC50, enzyme activity was determined at various concentrations of inhibitor. The percentages shown in Table 2 reflect the inhibition of enzyme activity relative to the absence of compound when the enzyme is incubated with 50 μM of the compound indicated. For in vivo studies, human lung cancer cell lines were incubated with increasing concentrations of the compound indicated and the concentration required to kill >90% of the cells is reported.

For series [1], the system named is H1299 and A549 human lung cancer cells. In words: Killing of human lung cancer cell lines by increasing concentrations of compound. It is filed as cell-based. The note with it: concentration required to kill >90% of the cells, read-out: IC50 in vivo. Here is the method: as §2
Human lung cancer cells were exposed to increasing concentrations of candidate compounds A2 and D1. The toxicity of the compounds was measured by determining the percentage of surviving cells. Cells were mock-treated with DMSO as a control. […] depicts the toxicity of compounds A2 (FIG. 8a) and D1 (FIG. 8b) in H1299 cells compared to mock treatment with DMSO.

Another series addresses PKM1 (Homo sapiens (Human), UniProt P14618). In words: Recombinant PKM1 enzyme activity (same screening method). Particulars: screening concentration estimated at 50 μM. It is filed as biochemical. On the procedure: as §1
This same screening method was then used to retest candidate molecules for the inhibition of PKM1 to determine which candidate compounds are active against PKM2, but not PKM1.
as §2

A further series concerns FL5.12 cells. As to the kind of experiment: Toxicity in FL5.12 cells with and without growth factor (IL-3). Particulars: twenty hours of treatment, presence and absence of IL-3. It is filed as cell-based, mouse. On the procedure: Mouse pre-lymphocyte cells (FL5.12 cells) were treated with candidate compounds A2 (FIG. 9a) and D1 (FIG. 9b) for twenty hours in the presence and absence of growth factor (IL-3).

The source of these data is patent US8877791B2, “Inhibitors of pyruvate kinase and methods of treating disease” (Beth Israel Deaconess Medical Center, Inc., priority 2006, dated 2014).

Chain of PKM1 (P14618 other isoform, or with tags, fused parts or gaps, species assumed): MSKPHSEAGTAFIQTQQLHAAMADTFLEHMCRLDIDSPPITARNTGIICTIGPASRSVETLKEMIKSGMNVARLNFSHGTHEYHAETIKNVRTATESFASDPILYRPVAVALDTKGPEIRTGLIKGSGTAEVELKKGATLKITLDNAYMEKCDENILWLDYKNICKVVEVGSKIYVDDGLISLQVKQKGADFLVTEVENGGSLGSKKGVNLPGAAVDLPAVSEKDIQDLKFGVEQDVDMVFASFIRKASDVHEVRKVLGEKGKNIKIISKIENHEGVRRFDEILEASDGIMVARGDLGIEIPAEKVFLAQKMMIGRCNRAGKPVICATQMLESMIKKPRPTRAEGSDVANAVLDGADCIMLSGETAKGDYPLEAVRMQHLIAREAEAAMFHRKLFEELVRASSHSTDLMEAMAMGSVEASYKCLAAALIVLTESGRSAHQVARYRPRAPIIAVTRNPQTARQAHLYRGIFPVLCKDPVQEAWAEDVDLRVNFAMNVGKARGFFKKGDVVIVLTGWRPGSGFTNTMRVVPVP
Chain of PKM2 (P14618 whole entry, species assumed): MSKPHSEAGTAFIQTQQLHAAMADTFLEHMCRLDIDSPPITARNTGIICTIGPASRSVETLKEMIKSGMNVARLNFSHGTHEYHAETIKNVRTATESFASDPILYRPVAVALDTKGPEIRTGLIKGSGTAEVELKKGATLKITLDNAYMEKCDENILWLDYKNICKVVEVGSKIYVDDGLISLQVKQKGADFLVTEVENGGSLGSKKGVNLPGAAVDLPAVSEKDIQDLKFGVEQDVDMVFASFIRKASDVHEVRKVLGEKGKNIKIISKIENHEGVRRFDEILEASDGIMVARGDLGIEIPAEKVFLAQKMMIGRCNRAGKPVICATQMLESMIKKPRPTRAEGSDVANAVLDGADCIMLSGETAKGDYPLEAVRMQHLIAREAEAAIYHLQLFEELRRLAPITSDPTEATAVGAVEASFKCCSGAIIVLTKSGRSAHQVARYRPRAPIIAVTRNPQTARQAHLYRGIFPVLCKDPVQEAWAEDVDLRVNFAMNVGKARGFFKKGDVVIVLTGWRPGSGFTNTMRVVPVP

Consider `O=C1C2C3C=CC(C3)C2C(=O)N1c1nc[nH]n1` (stereo not shown) [Compound H1], for which the IC50 on PKM2 is 90 µM. The Concentration killing >90% of cells in series [1] is greater than 500 µM.
Regarding `CCCCCN1/C(=C/C=C/c2n(CCCCC)c3cc(Cl)c(Cl)cc3[n+]2CCCC)N(CCCC)c2cc(Cl)c(Cl)cc21` [Compound B1], on PKM2, the IC50 was roughly 10 µM and the “PKM2 inhibition of enzyme activity relative to the absence of compound” value is 85%. The “PKM1 inhibition of enzyme activity relative to the absence of compound” value on PKM1 is recorded as 0%.
In the case of `O=C(O)CN1C(=O)/C(=C/c2ccc(OC(=O)c3ccccc3I)cc2)SC1=S` [Compound D1], in the series on FL5.12 cells, the “Toxicity in FL5.12 cells, effect of growth factor withdrawal” value is reported as “Growth factor withdrawal increases the toxicity”. In addition, at PKM2, the IC50 turned out to be 20 µM and the “PKM2 inhibition of enzyme activity relative to the absence of compound” value was 70%. Also, the Concentration killing >90% of cells in series [1] was roughly 250 µM. Besides, the “PKM1 inhibition of enzyme activity relative to the absence of compound” value at PKM1 is listed as 15%.
For `CC(=O)CSc1ccc(-n2c(C)ccc2C)cc1` [Compound A1], on PKM2, the IC50 is roughly 90 µM and the “PKM2 inhibition of enzyme activity relative to the absence of compound” value is reported as 50%. Moreover, in series [1], the Concentration killing >90% of cells was greater than 100 µM. Also, the “PKM1 inhibition of enzyme activity relative to the absence of compound” value on PKM1 is 15%.
With `C=C(NC(C)C)c1cc2c(=O)oc3ccc(C)cc3c2s1` [Compound G1], the IC50 at PKM2 was roughly 70 µM. Moreover, in series [1], the Concentration killing >90% of cells was greater than 500 µM.

For orientation: IC50 means the concentration that gives 50% inhibition.
